This is an account of results in the supplement of paper PMC11061612.

Test [1] has as its system CAPAN-2 (Pancreatic Carcinoma). In words: Bliss excess, mean over the matrix (fraction); higher = more synergy. Summed up: (§1)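 Cell lines grown in DMEM/F12 or RPMI with 10% FBS were plated in 1536-well plates and held 24 hours at 37°C, 5% CO2 before 72 hours of exposure to two-drug dose matrices, with DMSO typically at 0.2%. CellTiter-Glo 2.0 luminescence gave viability, which was converted to inhibition. Vehicle wells were set to 0 and blank wells to 1. Combination Emax is the second-highest inhibition in the matrix, and Bliss excess is the observed combination effect minus the expected EA + EB − EA·EB, where EA and EB are the single-agent effects.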

For test [2], the system named is ECC10 (Gastric Carcinoma). Described as above. Summed up:
as §1
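Note: after 72 h of two-drug dosing.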

As for `CS(=O)(=O)CCNCc1ccc(-c2ccc3ncnc(Nc4ccc(OCc5cccc(F)c5)c(Cl)c4)c3c2)o1` [Lapatinib] + NC1(c2ccc(-c3nc4ccn5c(=O)[nH]nc5c4cc3-c3ccccc3)cc2)CCC1 [MK-2206] (first compound max 10 µM, 7x7, partner max 10 µM), the Bliss excess in test [1] is -0.0098; in test [2] it was 0.0211.
